Data set [1] can be described thus: pKa measurement (Sirius GLpKa). The format is physicochemical. On the procedure:
The pKa of a compound of formula (I) is measured using one of the following methodologies.
The apparatus used consists of a Sirius GLpKa instrument with DPAS (Dip Probe Absorption Spectroscopy) attachment. Key elements of the apparatus are a Sirius pH electrode, stirrer, titrant dispensing tubes, a multi-tipped dispenser, motor driven dispensing syringes, fibre optic UV probe and diode array detector. In addition, solutions in PTFE containers of ionic strength adjusted (0.10 M KCl) distilled water, nominally 0.50 M HCl, nominally 0.50 M KOH and 80% v/v methanol:water are also housed within the instrument. The titration solutions are constantly purged with oxygen free nitrogen. The reservoir for the potassium hydroxide solution is further protected from atmospheric contamination by a soda-lime guard-tube. Samples are placed in titration vessels which in turn are placed in a movable autosampler tray (maximum capacity 48 samples). The electrode, stirrer, dispensing tubing/tips and DPAS probe are housed on a movable, automated z-tower unit, which, controlled by software, positions itself in the appropriate titration vessel when titrating. The Sirius GLpKa instrument is directly connected to a dedicated PC supporting software for assay setup and subsequent data analysis. Assays are set up using the GlpKaControl software and results are analysed using the pKaLOGP and pKaUV software on the PC. The software also allows determination of multiple pKas using complex curve fitting analyses.
Method B: Potentiometric Method
Two types of potentiometric titrations may be performed in order to determine a compound's pKa/pKas; a purely aqueous titration (recommended for fairly water soluble compounds) and a cosolvent titration, where variable amounts of methanol are added to the sample in addition to ionic strength adjusted water (recommended for compounds which are not soluble in water). For the latter, a value for the compound's pKa in pure ionic strength adjusted water can be estimated by the Yasuda-Shedlovsky procedure. This involves measuring the apparent pKa of the compound at three known weight percentages of methanol:water (transposed into reciprocals of the dielectric constants of the medium, 1/εr) and then extrapolating to 0 wt % methanol (1/εr=[…]).
The GLpKa instrument unit also houses two aqueous wash containers (containing distilled water), a waste beaker (to dispense extraneous solutions into) and a container holding pH 7.00 buffer solution for the electrode to be immersed in during periods between titrations. Each time a set of titrations is carried out, these solutions are replaced. Position 1 in the autosampler contains a titration vessel containing pH 7.00 buffer solution (changed for each titration set). For each titration set to be run, position 2 houses a titration vessel into which ionic strength adjusted water is dispensed (typically 15.00 mL). This in turn is adjusted to pH 1.80 with aqueous HCl and then titrated to pH 12.20 by gradual addition of aqueous KOH. This is referred to as a blank titration and is employed by the pKaLogP software in order to calibrate the pH electrode and to standardise the HCl solution, using the so-called four-plus parameter procedure. Periodically, (typically every 3 months, or when the titration solutions run low) the titration solutions are replaced and the KOH solution standardised against potassium hydrogen phthalate using a standardisation procedure within the GLpKaControl software. Between 1-2 mg of each sample must be accurately weighed out. Samples are placed in provided glass titration vessels. The weight of compound must be entered into the GLpKaControl software. […]

For the next data set, the target named is T1, human H1 receptor (Homo sapiens, UniProt P35367).
T1 construct: purchased Euroscreen SA, Brussels, Belgium ES-390-M; host or cells: recombinant CHO-K1 cells (membranes)
Put plainly: Histamine H1 receptor binding, competition displacement of [3H]-pyrilamine. The settings on record: 1 nM [3H]-pyrilamine, membranes from recombinant CHO-K1 cells expressing the human H1 receptor, 1 hour at room temperature; read-out: H1 pKi (converted). On the procedure:
Histamine H1 receptor binding activity of compounds of the invention was assessed by competition displacement of 1 nM [3H]-pyrilamine (Amersham, Bucks, Product code TRK 608, specific activity 30 Ci/mmol) to 2 μg membranes prepared from recombinant CHO-K1 cells expressing the human H1 receptor (Euroscreen SA, Brussels, Belgium, product code ES-390-M) in assay buffer (50 mM Tris pH 7.4 containing 2 mM MgCl2, 250 mM sucrose and 100 mM NaCl) for 1 hour at room temperature.
The following compounds of the invention gave inhibition of [3H]pyrilimine binding: […]
(In general: Loss of bound radioactivity is the signal in a displacement assay; it reports binding, not function.)

The mark [2] stands for this setting: ionic strength adjusted (0.10 M KCl) water, Method B: potentiometric method, read-out: pKa (measured using Method B).

This note sets out measurements from patent publication US7956070B2, “Piperidines as chemokine modulators (CCR)” (AstraZeneca AB, priority 2004, dated 2011).

The structures appear in SMILES notation. Like-named read-outs stand apart in the source and are kept apart here.

One may read the pKa as the negative logarithm of the acid dissociation constant.

T1 sequence (P35367 whole entry): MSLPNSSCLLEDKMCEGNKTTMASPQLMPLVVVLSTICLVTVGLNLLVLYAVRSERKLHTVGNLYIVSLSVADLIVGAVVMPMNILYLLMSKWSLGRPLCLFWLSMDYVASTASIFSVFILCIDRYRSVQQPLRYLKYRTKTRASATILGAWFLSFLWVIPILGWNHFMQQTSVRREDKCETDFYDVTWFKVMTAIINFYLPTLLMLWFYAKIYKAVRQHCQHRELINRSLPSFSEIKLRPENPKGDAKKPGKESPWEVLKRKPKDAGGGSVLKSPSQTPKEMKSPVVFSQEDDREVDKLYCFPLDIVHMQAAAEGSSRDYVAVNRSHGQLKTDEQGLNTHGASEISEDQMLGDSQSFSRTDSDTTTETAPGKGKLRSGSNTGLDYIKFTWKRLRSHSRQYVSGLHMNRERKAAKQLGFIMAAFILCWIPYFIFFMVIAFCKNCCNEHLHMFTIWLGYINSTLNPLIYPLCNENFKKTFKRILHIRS

Consider `Cc1c(OC2CCN(C[C@H](O)CNC(=O)c3ccc(Cl)c(C(=O)O)c3)CC2)ccc(Cl)c1Cl` [Example 42, 2-Chloro-5-[({(2R)-3-[4-(3,4-dichloro-2-methylphenoxy)piperidin-1-yl]-2-hydroxypropyl}amino)carbonyl]benzoic acid], for which the pKa in data set [1] (method not stated, read-out: measured pKa) turned out to be 2.3. The Ki at human H1 receptor was 126 nM. `N#Cc1cc(C(=O)NC[C@@H](O)CN2CCC(Oc3ccc(Cl)c(Cl)c3)CC2)c(C2CC2)[nH]c1=O` [Example 16, 5-Cyano-2-cyclopropyl-N-[(2R)-3-[4-(3,4-dichlorophenoxy)-1-piperidinyl]-2-hydroxypropyl]-1,6-dihydro-6-oxo-3-pyridinecarboxamide]: the pKa in data set [1] (setting [2]) was 3.8. Moreover, the Ki on human H1 receptor was 25.1 nM.

Regarding `O=C(NC[C@@H](O)CN1CCC(Oc2ccc(Cl)c(Cl)c2)CC1)c1sc(=O)[nH]c1-c1ccc(F)cc1` [Example 25, N-{(2R)-3-[4-(3,4-Dichlorophenoxy)piperidin-1-yl]-2-hydroxypropyl}-4-(4-fluorophenyl)-2-oxo-2,3-dihydro-1,3-thiazole-5-carboxamide], the pKa in data set [1] (setting [2]) came out at 7.4. Further, the Ki at human H1 receptor was 15.8 nM. Take `CS(=O)(=O)Nc1cc(C(F)(F)F)c(C(=O)NC[C@@H](O)CN2CCC(Oc3ccc(Cl)c(Cl)c3)CC2)cn1` [Example 18, N-{(2R)-3-[4-(3,4-Dichlorophenoxy)piperidin-1-yl]-2-hydroxypropyl}-6-[(methylsulfonyl)amino]-4-(trifluoromethyl)nicotinamide]: the pKa in data set [1] (setting [2]) was 5.3. The Ki on human H1 receptor was 316 nM. As for `Cc1c(OC2CCN(C[C@H](O)CNC(=O)COc3cc(C(=O)O)ccc3Cl)CC2)ccc(Cl)c1Cl` [Example 44, 4-Chloro-3-[2-({(2R)-3-[4-(3,4-dichloro-2-methylphenoxy)piperidin-1-yl]-2-hydroxypropyl}amino)-2-oxoethoxy]benzoic acid], the Ki on human H1 receptor was 12.6 nM. Take `CN(c1[nH]nnc1C(=O)NC[C@@H](O)CN1CCC(Oc2ccc(Cl)c(Cl)c2)CC1)S(C)(=O)=O` [Example 39, N-{(2R)-3-[4-(3,4-Dichlorophenoxy)piperidin-1-yl]-2-hydroxypropyl}-5-[methyl(methylsulfonyl)amino]-1H-1,2,3-triazole-4-carboxamide]: the Ki at human H1 receptor was 126 nM. On to `Cc1[nH]nnc1C(=O)NC[C@@H](O)CN1CCC(Oc2ccc(Cl)c(Cl)c2)CC1` [Example 8, N-{(2R)-3-[4-(3,4-Dichlorophenoxy)piperidin-1-yl]-2-hydroxypropyl}-5-methyl-1H-1,2,3-triazole-4-carboxamide], for which, in data set [1] (setting [2]), the pKa was found to be 7.5. Also, the Ki on human H1 receptor was 15.8 nM. On to `O=C(NC[C@@H](O)CN1CCC(Oc2ccc(Cl)c(Cl)c2)CC1)c1oc(=O)[nH]c1C(F)(F)F` [Example 37, N-{(2R)-3-[4-(3,4-Dichlorophenoxy)piperidin-1-yl]-2-hydroxypropyl}-2-oxo-4-(trifluoromethyl)-2,3-dihydro-1,3-oxazole-5-carboxamide], for which, on human H1 receptor, the Ki was 200 nM.
